Assay results taken from patent US20130171254A1, “FAST DISSOLVING PHARMACEUTICAL COMPOSITION COMPRISING LORNOXICAM” (ABBOTT HEALTHCARE PRIVATE LIMITED, priority 2009, published 2013).
Values after ≈ are worked out from the molar mass of the structure shown. Like-named read-outs stand apart in the source and are kept apart here.

Legend:
[1] = cited from earlier work
[2] = cited from earlier work; remark: listed apart in the source
[3] = cited from earlier work; remark: listed apart in the source
[4] = 0.1 N HCl at room temperature (Bertelsen et al U.S. Pat. No. 6,713,089); cited from earlier work
[5] = 8 mg dose, acidic conditions such as found in the stomach

Compound	mean Tmax ([1]; 25 mg film-coated tablets with bicarbonate) [min]	mean Tmax ([1]; 50 mg film-coated tablets with bicarbonate) [min]	mean Tmax ([1]; standard immediate release tablets) [min]	solubility (physchem; pH 1.2, simulated gastric fluid) [µg/mL]	solubility (physchem; water) [µg/mL]	pKa ([2]; basic pyrimido group)	pKa [2]	pKa ([2]; enolic group)	apparent partition coefficient ([2]; n-octanol/buffer pH 7.4)	synovial fluid: plasma AUC ratios ([3]; after administration of 4 mg twice daily)	Tmax, range ([3]; fasted subjects) [min]	time to reach peak plasma concentrations (Tmax) ([3]; fasted subjects)	half-life ([3]; in vivo)	median Tmax ([3]; new formulations containing 40% bicarbonate, co-processed intimately (US 20070218128, Bertelsen)) [min]	median Tmax ([3]; standard tablets (US 20070218128, Bertelsen)) [min]	solubility [4]	volume of acid required for complete dissolution [5]
O=C(O)Cc1ccccc1Nc1c(Cl)cccc1Cl [diclofenac]	21.2	29.8	50.8														
CN1C(=C(O)Nc2ccccn2)C(=O)c2sc(Cl)cc2S1(=O)=O (stereo in doubt) [lornoxicam, (3E)-6-chloro-3-[hydroxy(pyridin-2-ylamino)methylene]-2-methyl-2,3-dihydro-4H-thieno[2,3-e][1,2]thiazin-4-one 1,1-dioxide]				5.6 (≈ 15.1 µM)	10.4 (≈ 28 µM)	5.5	4.7	1-2	1.8	~0.5	84 to 360	around 2.5 hours	approximately 4 hours	30	150	less than 1 mg/100 ml	more than 1400 ml
